Measurements from US12016353B2, “Compositions and methods for aquaculturing” (The State of Israel, Ministry of Agriculture & Rural …, priority 2017, dated 2024).

Assays:
Type in all cases: in vivo, Sparus aurata
PepT1 [1] = assay: PepT1 pattern of expression during the day in gilthead sea bream (10 day trial); details: diet with 0.8% sodium butyrate and 1% taurine versus control, FIG. 4
Protocol: (§1) The experimental set up consisted of 200 L circular tanks in a flow through, filtered (10 μm) ambient seawater (40‰) system under a natural photoperiod of about 12 h/12 h (dark/light) where the water temperature ranged between 24.8-25.4° C. Experimental diets were offered to the fish twice a day (9:00; 14:00).
Fish having an average weight of 14.49±0.2 g (mean±SEM) were stocked in […] at a density of 30 fish tank^−1 with 5 replicate tanks (assigned as A-E) dietary treatment^−1. During the 10 day trial, fish were offered the experimental diets (Table 4) with 1% taurine and with 0 and 0.8% of sodium butyrate (Sigma Aldrich, USA). […]
(§2) Fish were euthanized with an overdose of MS2-22 (Sigma Aldrich, USA) followed by a swift decapitation and then dissected for the removal of their gastrointestinal tract. […] For each fish, gut index was calculated using the following formula: Gut index=100×Body weight (g)/(intestine length (mm))^3.
Total RNA extraction from samples of the proximal intestine was carried out using BioTri reagent (Biolab, Israel) according to the manufacturer's instructions. […] In each sample the 260/280 ratio, 260/230 ratio and RNA concentration were obtained by plate reader and Gen5 software (Synergy HT, BioTek, USA). For each RNA extraction procedure, the integrity of the extracted RNA was evaluated by electrophoresis on 1.2% agarose gel stained with GelRed (Biotium, USA). […]

PepT1 [2] = assay: Sustained effect of dietary butyrate on PepT1 mRNA expression in gilthead sea bream; details: for PepT1 transcription levels after butyrate feeding had ceased: 6 days after feeding butyrate ceased
Protocol: as §1
For determining whether (1) an effect of dietary butyrate on PepT1 transcriptional level is sustained after its supplementation has stopped and (2) to investigate an effect of dietary butyrate on Cdx1b expression. To this end another study was carried out. In this trial, fish having an average weight of 27.14±0.47 g (mean±SEM) were stocked at a density of 30 fish per tank with two replicate tanks per treatment. Fish were fed with the experimental diets (Table 4) including 1% taurine and 0, 0.8 and 1.6% of sodium butyrate for 8 days before its supplementation was stopped and all of the dietary groups started receiving the 0% sodium butyrate containing diet. Four fish from each tank (8 fish per dietary treatment) were sampled for their proximal intestine total RNA at days 9, 12 and 15 of the trial.
Fish were euthanized with an overdose of MS2-22 (Sigma Aldrich, USA) followed by a swift decapitation and then dissected for the removal of their gastrointestinal tract. For total RNA, the 1st segment of the proximal intestine (approx. 1 cm) was cut, immediately frozen and stored at −80° C. until RNA extraction. For histology, pieces of the proximal intestine (approx. 0.6 cm) were sampled, placed in 15 ml Falcon tubes containing 10% neutral buffered formalin (NBF) and stored at room temperature until processed. For immunohistochemistry (IHC-P) staining, pieces of proximal intestine (approx. 0.6 cm) were sampled, placed in 1.7 ml microcentrifuge tubes containing 4% paraformaldehyde (PFA) and stored at 4° C. for overnight fixation. After fixation, the intestinal samples were rinsed twice and washed three times (10 min each) with PBST 0.8% (PBS with 0.8% Triton x-100, Sigma Aldrich, USA). Following this, the samples were gradually dehydrated by one 5 min wash with 50% methanol in PBST followed by three more washings with 100% methanol and stored in 100% methanol at −20° C. until carrying out the staining procedure. After the removal of the gastrointestinal tract, the remaining carcasses of sampled fish were put into nylon bags and stored at −20° C. until proximate analysis. In order to calculate the gut index (GI), fish were weighed prior to the removal of their gastrointestinal tract. The intestines were separated from the stomach and pyloric caeca and then aligned, by forceps, against a ruler for measuring their length (mm). For each fish, gut index was calculated using the following formula: Gut index=100×Body weight (g)/(intestine length (mm))^3.
(§3) Total RNA extraction from samples of the proximal intestine was carried out using BioTri reagent (Biolab, Israel) according to the manufacturer's instructions. For determining total RNA quality and concentration, 2 μl from each sample diluted with 18 μl of DEPC treated water (1:10) were loaded onto a 384 well microplate (Greiner Bio-One, Austria). In each sample the 260/280 ratio, 260/230 ratio and RNA concentration were obtained by plate reader and Gen5 software (Synergy HT, BioTek, USA). For each RNA extraction procedure, the integrity of the extracted RNA was evaluated by electrophoresis on 1.2% agarose gel stained with GelRed (Biotium, USA). […]

PCNA = PCNA mRNA expression in sea bream proximal intestine (intestinal epithelial cell proliferation); details: 0.8% sodium butyrate diet for 9 days, 1.5 h after feeding, P<0.05, FIG. 6
Protocol: Fish having an average weight of 14.49±0.2 g (mean±SEM) were stocked in 15 tanks at a density of 30 fish tank^−1 with 5 replicate tanks (assigned as A-E) dietary treatment^−1. […]
as §3
Specific real-time PCR primers (Table 6) were designed for amplifying the sea bream PepT1 (accession no. GU733710.1), PCNA (accession no. CX734891.1), CCK, Cdx1b and β-actin (accession no. AY362763.1) transcripts. Quantification of target gene transcripts of different treatments was achieved by PCR reaction mix (10 μl) containing SYBR Green dye (Quanta, Perfecta; SYBR Green FastMix, Low ROX; 95074-012), template cDNA and 500 nM of target specific primers in a quantitative PCR system (Applied Biosystems, 7500 Fast Real Time PCR System). […]

[3] = test system: proximal intestine epithelium; assay: Histological analysis of proximal intestine cross sections of sea bream (inner/outer perimeter ratio); details: 1.6% sodium butyrate, independent of dietary protein level, P<0.001, FIG. 9
Protocol: During the 13 week trial, fish were weighed approximately every two weeks. The data were used to calculate growth rates and to adjust the daily rations of feed. At the end of the trial, 6 fish from each tank were sampled for calculating gut index and extracting their proximal intestine total RNA. Two other fish were sampled for histology and body composition. All sampling procedures were performed as described.
as §2, with “tract. For total RNA, the 1st segment of the proximal intestine (approx. 1 cm) was cut, immediately frozen and stored at −80° C. until RNA extraction.” for “tract.”
Standard protocol for histological analysis was implemented (Grate et al., 2003). […] Intestinal cross sections were photographed under a stereo zoom microscope (Axio Zoom.V16, Zeiss, Germany) and the inner and outer perimeter (mm) of the sections were measured using ImageJ software (imagej(dot)nih(dot)gov/ij/). […] The calculated ratio (inner perimeter/outer perimeter) for each section was then averaged for each slide/sample and analyzed for differences between treatments.

## CCCC(=O)[O-].[Na+] [sodium butyrate]
PepT1 [1]
  PepT1 expression prior to the morning feeding: significantly (P<0.01) higher PepT1 expression
PepT1 [2]; 0.8% butyrate for 8 days, FIG. 5B
  PepT1 transcription levels after butyrate feeding had ceased: remained higher than the control
PepT1 [2]; 0.8% butyrate in diet for 8 days versus control, FIG. 5A
  PepT1 transcription: significantly (P<0.001) increased
PepT1 [2]; 1.6% butyrate for 8 days, FIG. 5C
  PepT1 transcription levels after butyrate feeding had ceased: remained higher than the control
PepT1 [2]; 1.6% butyrate in diet for 8 days versus control, FIG. 5A
  PepT1 transcription: significantly (P<0.001) increased
PepT1 [2]; 1.6% butyrate in diet for 8 days, FIG. 5A
  PepT1 transcription, increase over control: more than 2 fold
PCNA
  PCNA expression relative to control: more than 2 fold
[3]
  expansion of the inner to outer perimeter ratio of the proximal intestine: approximately 30%
